Measured values taken from PMC7618597, “Dual Nurr1/RXR agonism of valerenic acid and synthetic mimetics enables dimer-selective Nurr1 modulation” (ACS medicinal chemistry letters, 2025).

Experiments:
[1] = target: T1, RXRγ (Homo sapiens, UniProt P48443); assay: Gal4-hybrid reporter gene assay, RXRγ; type: cell-based; conditions: Gal4-hybrid reporter gene assay; for EC50: mean±S.E.M., n≥3
T1 construct: pFA-CMV-hRXRγ-LBD; expressed in transfected cells; host or cells: HEK293T
T1 sequence (P48443 231-459 limits assumed): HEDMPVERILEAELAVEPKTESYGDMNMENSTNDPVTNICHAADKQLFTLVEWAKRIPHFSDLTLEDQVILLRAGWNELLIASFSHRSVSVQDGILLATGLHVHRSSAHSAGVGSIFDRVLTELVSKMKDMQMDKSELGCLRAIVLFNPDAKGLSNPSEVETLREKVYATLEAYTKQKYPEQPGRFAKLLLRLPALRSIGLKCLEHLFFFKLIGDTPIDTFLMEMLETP
Method: modified Eagle’s medium (DMEM), high glucose supplemented with 10% fetal calf serum (FCS), sodium pyruvate (1 mM), penicillin (100 U/mL), and streptomycin (100 μg/mL) at 37 °C and 5% CO2 and seeded in 96-well plates (3×10^4 cells/well). After 24 h, the medium was changed to Opti-MEM without supplements, and the cells were transiently transfected using Lipofectamine LTX reagent (Invitrogen) according to the manufacturer’s protocol. Five hours after transfection, the cells were incubated with the test compounds in Opti-MEM supplemented with penicillin (100 U/mL), streptomycin (100 μg/mL), and 0.1% DMSO for 15 h before luciferase activity was measured using the Dual -Glo Luciferase Assay System (Promega) according to the manufacturer’s protocol on a Tecan Spark l uminometer (Tecan Deutschland GmbH, Germany). Firefly luminescence was divided by Renilla luminescence and multiplied by 1000, resulting in relative light units (RLU) to normalize for transfection efficiency and cell growth. Fold activation was obtained by dividing the mean RLU of a sample by the mean RLU of the untreated control. All samples were tested in at least three biologically independent experiments in duplicates. For dose –response curve fitting and calculation of EC50 values, the equation “[Agonist] vs. response – Variable slope (four parameters)” was used in GraphPad Prism (version 5.04, GraphPad Software, La Jolla, CA, USA). […] (10 μM, NR4A) and bexarotene (1 µM, NR2B) served as the positive control. […]
150 μM in the same buffer containing 2-4% DMSO) in 21–26 injections (1 × 1 μL and 20 × 4 to 25 × 4 μL) with an injection interval of 120 s. As control experiments, the test compounds were titrated to the buffer, and the buffer was titrated to the protein under otherwise identical conditions. The heat rates of the compound-Nurr1 LBD titrations were analyzed using NanoAnalyze software (TA Instruments, New Castle, DE) with an independent binding model.

[2] = tested on: rat dopaminergic neuronal cells (N27); assay: Nurr1-regulated gene expression (qPCR) in N27 cells; type: cell-based
Method: Nurr1 is a key factor of neuroprotection and health of dopaminergic neurons. Therefore, we explored the impact of 2 (10 μM) and 3 (1 μM) on gene expression in rat dopaminergic neuronal cells (N27), which have been widely used to study Nurr1 agonists[17],[18],[38],[39]. Both compounds were non-toxic at the test concentrations in a multiplex toxicity assay (Figure S5). […] Modulation of Nurr1 LBD homodimerization and heterodimerization of the LDBs of Nurr1 and RXRα was investigated by HTRF as reported previously4. Nurr1 LBD or RXRα LBD proteins labeled with sGFP were titrated against a fixed concentration of Tb3+-cryptate as streptavidin conjugate ([…], Revvity) coupled to biotinylated Nurr1 LBD protein in the presence of test compounds at 30 μM or absence of compound as a negative control (apo). Assay solutions were prepared in buffer containing 25 mM HEPES pH 7.5, 150 mM KF, 5% (m/v) glycerol, 5 mM DTT, 0.1% (m/v) CHAPS and 1% DMSO. The FRET donor complex was formed from biotinylated Nurr1 LBD (final concentration 0.188 nM) and Tb-SA (0.375 nM) and was kept constant. For the homodimerization assay, the FRET acceptor consisted of sGFP-Nurr1 LBD, which was titrated from 0.5 μM, while free sGFP was added to keep the total GFP content stable at 0.5 μM. For the heterodimerization assay, the FRET acceptor sGFP-RXRα LBD was titrated from 6 μM, while free sGFP was added to keep a constant concentration of GFP at 6 μM. Samples were equilibrated at room temperature for 2 h and fluorescence intensities (FI) after excitation at 340 nm were recorded at 520 nm for sGFP acceptor fluorescence and at 620 for Tb-SA donor fluorescence on a SPARK plate reader (Tecan Group Ltd.). FI520 was divided by FI620 and multiplied by 10,000 to give a dimensionless HTRF signal. For dose-response curve fitting, the equation “[Agonist] versus response-variable slope (four parameters)” was used in GraphPad Prism ( version 9.5.1, GraphPad Software, La Jolla, CA). Evaluation of Nurr1-regulated gene expression. N27 rat dopaminergic neural cells (SCC048, Sigma-Aldrich, Darmstadt, Germany) were cultured in RPMI 1640 medium (Gibco, Thermo Fisher Scientific, Waltham, MA, USA) supplemented with 10% FCS, penicillin (100 U/mL), and streptomycin (100 μg/mL) at 37 °C and 5% and seeded in 12-well plates (3×10^5 cells/well). […] RNA concentration and purity were assessed using a NanoDrop One UV-vis spectrophotometer (Thermo Fisher Scientific) at 260/280 nm. […]

Compound | max. act. (RXR) γ [1] [fold] | EC50 [1] [nM] | mRNA expression of TH, FLRT2, BDNF, CRMP4 ([2]; 10 μM) | mRNA expression of XIAP, SESN3, CCND2, BIRC5, SOD2 ([2]; 10 μM) | mRNA expression of TH, FLRT2, BDNF, CRMP4 ([2]; 1 μM) | mRNA expression of XIAP, SESN3, CCND2, BIRC5, SOD2 ([2]; 1 μM)
Cc1c2c(n(-c3ccc(CC(=O)O)cc3)c1C)CCC(F)(F)C2 [compound 2] | 44±1 | 3400 | robustly upregulated | not induced | – | –
Cc1c(C)n(-c2ccc(CC(=O)O)cc2)c2ccc(F)cc12 [compound 3] | 67±4 | 1700 | – | – | robustly upregulated | not induced
